The text below walks through data of US20060141064A1, “Herbal formulation useful as local anesthetic” (priority 2004, published 2006).

The structures appear in SMILES notation.

The subject of test [1] is guinea pig. As to the kind of experiment: Local anesthetic properties, intradermal wheal method in guinea pigs, intradermal injection (Table 2). Format: in vivo. Particulars: 2% w/w, n = 6. The method, then:
Intra Dermal Wheal Method in Guinea Pigs:
The hairs on the back of guinea pigs were shaved. The normal response of the animal with a pinprick on both sides of the back was tested with 0.2 ml of the herbal formulations were injected intradermally on the left side and 0.2 ml of a normal saline (0.9%) was injected on the right side of the back. The sides were demarcated by ink. Six pinpricks were applied at interval of 2 to 3 s. Pinpricks were repeated after every 5 min. Animals showing no squeak response to all the six pinpricks were considered positive to anaesthetic effect.

Test [2] has as its system guinea pig. The test is described as follows: Local anesthetic properties, guinea pig wheal method, topical application (Table 1). The arrangement: key: a positive (+) response is recorded, showing no anesthetic activity; loss in sensation (−). Particulars: 2% w/w, n = 6. Type of test: in vivo.

Take `CCN(CC)CC(=O)Nc1c(C)cccc1C` [Lignocaine]: the “Response at 0 minutes after intradermal injection” value in test [1] (0 min) is listed as “+”. For the same compound, the “Response at 5 minutes after intradermal injection” value in test [1] (5 min) is listed as “−”. Moreover, the “Response at 10 minutes after intradermal injection” value in test [1] (10 min) is recorded as “−”. Besides, the “Response at 15 minutes after intradermal injection” value in test [1] (15 min) was “−”. Further, in test [1] (20 min), the “Response at 20 minutes after intradermal injection” value is given as “−”. In test [1] (30 min), the “Response at 30 minutes after intradermal injection” value is recorded as “−”. The “Response at 45 minutes after intradermal injection” value in test [1] (45 min) was “−”. Moreover, the “Response at 60 minutes after intradermal injection” value in test [1] (60 min) is given as “−”. The “Response at 0 minutes after topical application” value in test [2] (0 min) is “+”. In addition, the “Response at 5 minutes after topical application” value in test [2] (5 min) is “+”. In test [2] (10 min), the “Response at 10 minutes after topical application” value is on record as “−”. In test [2] (15 min), the “Response at 15 minutes after topical application” value was “−”. Also, the “Response at 20 minutes after topical application” value in test [2] (20 min) was “−”. The “Response at 30 minutes after topical application” value in test [2] (30 min) was “−”. Besides, the “Response at 45 minutes after topical application” value in test [2] (45 min) is “−”. Moreover, in test [2] (60 min), the “Response at 60 minutes after topical application” value is given as “−”. The “Response at 120 minutes after topical application” value in test [2] (120 min) was “−”.
